Experimental data reported in ChEMBL document CHEMBL1201862, “PubChem BioAssay data set” (2004).
Calls of active or inactive are those of the source.

What was measured:
[1] = A cytotoxicity screen of small molecule inhibitors of the PhoP region in Salmonella typhi identified in the primary screen. [Related pubchem assays: 1850, 1864, 1985 ]; assay type: functional
[2] = tested on: Streptococcus sp. 'group A'; test: Streptococcus pyogenes SK(-)GAS viability under kanamycin – luminescence, BacTiterGlo, confirmation, counter-screen for streptokinase expression inhibitor project, dose response (AID 1900); assay type: functional, organism-based
cells [3] = assay type: functional, cell-based
Streptokinase A = target: T1, Streptokinase A (Streptococcus pyogenes serotype M1, UniProt P10520); test: viability-normalized secreted streptokinase activity reduction – plasminogen activation absorbance, OD405, dose response (AID 1914); assay type: functional, Streptococcus pyogenes M1 GAS;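 further: secreted streptokinase activity via plasminogen activation per viability signal from cell pellet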
T1 sequence (P10520 whole entry): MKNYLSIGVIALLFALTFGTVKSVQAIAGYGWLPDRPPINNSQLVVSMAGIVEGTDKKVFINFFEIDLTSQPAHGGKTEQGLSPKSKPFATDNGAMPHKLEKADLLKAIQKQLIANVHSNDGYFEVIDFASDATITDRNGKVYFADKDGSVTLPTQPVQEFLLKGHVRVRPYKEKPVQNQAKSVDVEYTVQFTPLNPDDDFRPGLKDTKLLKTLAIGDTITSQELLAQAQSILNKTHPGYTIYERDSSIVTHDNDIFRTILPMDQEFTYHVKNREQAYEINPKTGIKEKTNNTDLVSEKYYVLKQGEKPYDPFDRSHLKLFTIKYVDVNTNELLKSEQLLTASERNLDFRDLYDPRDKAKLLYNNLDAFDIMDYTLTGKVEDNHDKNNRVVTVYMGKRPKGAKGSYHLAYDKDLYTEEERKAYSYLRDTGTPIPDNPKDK

[4] = Trypanosoma cruzi growth suppression in host cells – NIH3T3 host cells, beta-gal luminescence, confirmation (AID 2044); assay type: functional, cell-based;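 further: intracellular parasites grown in NIH/3T3 mouse fibroblasts as host cells; luminescent beta-galactosidase reporter signal from transgenic T. cruzi replicating inside host cells; inhibitors lower the luminescence signal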
cells [5] = assay type: functional, cell-based; remark: listed apart in the source
[6] = NIH3T3 cell viability loss – ATP luminescence, mouse fibroblasts, counter-screen, dose response (AID 2010); assay type: functional, cell-based;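 further: cells exposed to compound for about 90 hours before reading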
Streptococcus = test: GAS UMAA2166 growth inhibition – luminescence, BacTiterGlo, counter-screen for streptokinase expression inhibitor project, dose response (AID 1915); assay type: functional, organism-based;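 further: potency for reduction of bacterial viability or growth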
Nonstructural protein 1 = Nonstructural protein 1 (Influenza A virus, UniProt Q194T2); assay type: functional, Influenza A virus (A/California/07/2009(H1N1))
INS1 = test: INS-1E survival protection against cytokine death – cell-based, luminescence, retest, dose response (AID 449756); assay type: functional; conditions: Rattus norvegicus;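 further: cell death triggered by IL-1 beta plus TNF-alpha plus IFN-gamma mixture; protective hits raise ATP signal compared with cytokine alone wells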
[7] = target: T2, Probable nicotinate-nucleotide adenylyltransferase (Staphylococcus aureus (strain N315), UniProt P65502); assay type: functional, Staphylococcus aureus subsp. aureus N315;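 on IC50 Mean: confirmatory dose-response retesting of NadD inhibitor hits first found in an ultra-high-throughput screen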
[8] = target: T2, Probable nicotinate-nucleotide adenylyltransferase; assay type: functional, Staphylococcus aureus subsp. aureus N315; conditions: read-out: IC50_Mean
[9] = luciferase reporter signal suppression in cells – H4 neuroglioma cells, luminescence, dose response (AID 1990); assay type: functional, cell-based
BJ [10] = test: BJ-TERT fibroblast viability loss – cell-based, RAS-independent, luminescence, dose response (AID 1933); assay type: functional; conditions: Homo sapiens
[11] = Luminescence Cell-Based Dose Response HTS to Identify Inhibitors of 5'UTR Stem-Loop Driven Prion Protein mRNA Translation in H4 Neuroglioblastoma Cells. [Related pubchem assays: 1827 (Project Summary), 1813 (Primary HTS)]; assay type: functional
BJ [12] = test: cells; assay type: functional, cell-based; conditions: Homo sapiens
BJ [13] = test: BJ-TERT-LT-ST fibroblast viability loss – cell-based, RAS-independent, luminescence, dose response (AID 1935); assay type: functional; conditions: Homo sapiens;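 further: BJ fibroblasts immortalized with TERT plus LT and ST oncogenes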
[14] = DRD fibroblast viability loss – cell-based, non-viral oncogenic, luminescence, dose response (AID 1934); assay type: functional; conditions: Homo sapiens
HEK293 = test: EBV LMP1 TES2 canonical NF-kB signalling blockers – cell-based, HEK293, luciferase, cherry-pick, dose response (AID 588343); assay type: functional; conditions: Homo sapiens
[15] = viability loss in HepG2 hepatoma cells – cell-based, ATP luminescence, cherry-pick, activator set 2, cytotoxicity control, dose response (AID 1053143); assay type: functional
[16] = blockade of melanocortin 4 receptor signaling – cell-based, plate reader, cherry pick, counter-screen for LGR2 antagonist project, dose response (AID 743444); assay type: functional;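 further: transfected HEK 293 cells stimulated with alpha-MSH peptide; potency of inhibitors of the alpha-MSH evoked signal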
cells [17] = test: cells
[18] = A Cell Based Secondary Assay To Explore Cytotoxicity of Compounds that Sensitize Mycobacterium Tuberculosis to Beta-Lactam Antibiotics.; assay type: functional
[19] = target: T3, Microphthalmia-associated transcription factor (Homo sapiens, UniProt O75030); test: reducers of TRPM1 reporter luminescence, concentration series – cell-based, SK-MEL-5, cherry-picked, set 3, MITF inhibitor project, dose response (AID 493073); assay type: functional;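 further: SK-MEL-5 melanoma cells with luciferase driven by the MITF target TRPM1 promoter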
T3 sequence (O75030 whole entry): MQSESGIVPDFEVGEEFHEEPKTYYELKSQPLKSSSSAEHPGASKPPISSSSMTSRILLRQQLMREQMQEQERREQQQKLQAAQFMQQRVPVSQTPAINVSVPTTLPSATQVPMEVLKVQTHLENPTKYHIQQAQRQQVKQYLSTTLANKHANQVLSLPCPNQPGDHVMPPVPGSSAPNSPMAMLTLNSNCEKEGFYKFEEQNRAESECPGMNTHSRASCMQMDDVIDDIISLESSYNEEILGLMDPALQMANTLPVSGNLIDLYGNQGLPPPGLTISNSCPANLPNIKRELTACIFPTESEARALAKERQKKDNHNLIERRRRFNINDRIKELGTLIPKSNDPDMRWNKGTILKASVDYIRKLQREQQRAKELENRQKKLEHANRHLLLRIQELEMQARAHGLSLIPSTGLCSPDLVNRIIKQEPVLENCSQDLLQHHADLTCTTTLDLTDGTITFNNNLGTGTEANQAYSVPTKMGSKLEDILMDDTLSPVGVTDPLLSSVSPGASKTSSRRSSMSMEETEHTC

[20] = target: Peroxisome proliferator-activated receptor gamma/Nuclear receptor coactivator 1 (Homo sapiens, UniProt P37231); test: (§1) TR-FRET dose response biochemical High Throughput Screening assay for agonists of the steroid receptor coactivator 1 (SRC-1) recruitment by the peroxisome proliferator-activated receptor gamma (PPAR gamma): non-selective agonists. [Related pubchem assays (depositor defined):AID1300, AID1808, AID504735, AID631]; assay type: protein assay
[21] = target: Peroxisome proliferator-activated receptor gamma/Nuclear receptor coactivator 3 (Homo sapiens, UniProt P37231); test: as §1, with “3 (SRC-3)” for “1 (SRC-1)”, “assays: 1301 (Confirmation screen.), 1048 (Primary screen.)]” for “assays (depositor defined):AID1300, AID1808, AID504735, AID631]”; assay type: functional
[22] = target: Peroxisome proliferator-activated receptor gamma/Nuclear receptor coactivator 2 (Homo sapiens, UniProt P37231); test: TR-FRET dose response biochemical High Throughput Screening assay for agonists of the steroid receptor coactivator 2 (SRC-2) recruitment by the peroxisome proliferator-activated receptor gamma (PPAR gamma): non-selective agonists. [Related pubchem assays: 1297, 1032 ]; assay type: functional

T2 sequence (P65502 whole entry): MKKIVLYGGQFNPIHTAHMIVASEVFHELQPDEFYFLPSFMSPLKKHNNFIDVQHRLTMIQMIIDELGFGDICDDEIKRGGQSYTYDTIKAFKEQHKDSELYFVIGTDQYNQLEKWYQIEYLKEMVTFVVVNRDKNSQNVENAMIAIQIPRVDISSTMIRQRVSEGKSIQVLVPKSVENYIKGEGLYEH
Sequence of Nonstructural protein 1 (Q194T2 whole entry): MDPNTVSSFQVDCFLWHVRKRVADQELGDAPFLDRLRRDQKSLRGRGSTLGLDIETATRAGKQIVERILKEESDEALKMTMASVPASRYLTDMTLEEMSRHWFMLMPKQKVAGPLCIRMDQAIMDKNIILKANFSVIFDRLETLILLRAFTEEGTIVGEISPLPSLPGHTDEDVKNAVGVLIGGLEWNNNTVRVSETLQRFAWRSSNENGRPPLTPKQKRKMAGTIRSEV
Sequence of Peroxisome proliferator-activated receptor gamma/Nuclear receptor coactivator 1 (P37231 whole entry): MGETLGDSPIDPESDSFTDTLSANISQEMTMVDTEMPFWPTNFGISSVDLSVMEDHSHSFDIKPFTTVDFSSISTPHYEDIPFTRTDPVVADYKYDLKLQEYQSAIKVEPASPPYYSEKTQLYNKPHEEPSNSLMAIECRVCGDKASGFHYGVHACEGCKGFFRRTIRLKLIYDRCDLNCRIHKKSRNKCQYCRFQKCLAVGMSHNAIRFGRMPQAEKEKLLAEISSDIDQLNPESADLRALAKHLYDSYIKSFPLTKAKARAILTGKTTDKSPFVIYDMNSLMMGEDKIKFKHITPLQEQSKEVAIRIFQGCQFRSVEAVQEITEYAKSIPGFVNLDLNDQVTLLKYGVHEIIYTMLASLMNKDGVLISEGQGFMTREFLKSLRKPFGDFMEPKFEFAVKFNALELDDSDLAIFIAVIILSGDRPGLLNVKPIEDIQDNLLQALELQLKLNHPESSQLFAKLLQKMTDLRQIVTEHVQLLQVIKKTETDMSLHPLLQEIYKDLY
Sequence of Peroxisome proliferator-activated receptor gamma/Nuclear receptor coactivator 1 (Q15788 whole entry, further chain): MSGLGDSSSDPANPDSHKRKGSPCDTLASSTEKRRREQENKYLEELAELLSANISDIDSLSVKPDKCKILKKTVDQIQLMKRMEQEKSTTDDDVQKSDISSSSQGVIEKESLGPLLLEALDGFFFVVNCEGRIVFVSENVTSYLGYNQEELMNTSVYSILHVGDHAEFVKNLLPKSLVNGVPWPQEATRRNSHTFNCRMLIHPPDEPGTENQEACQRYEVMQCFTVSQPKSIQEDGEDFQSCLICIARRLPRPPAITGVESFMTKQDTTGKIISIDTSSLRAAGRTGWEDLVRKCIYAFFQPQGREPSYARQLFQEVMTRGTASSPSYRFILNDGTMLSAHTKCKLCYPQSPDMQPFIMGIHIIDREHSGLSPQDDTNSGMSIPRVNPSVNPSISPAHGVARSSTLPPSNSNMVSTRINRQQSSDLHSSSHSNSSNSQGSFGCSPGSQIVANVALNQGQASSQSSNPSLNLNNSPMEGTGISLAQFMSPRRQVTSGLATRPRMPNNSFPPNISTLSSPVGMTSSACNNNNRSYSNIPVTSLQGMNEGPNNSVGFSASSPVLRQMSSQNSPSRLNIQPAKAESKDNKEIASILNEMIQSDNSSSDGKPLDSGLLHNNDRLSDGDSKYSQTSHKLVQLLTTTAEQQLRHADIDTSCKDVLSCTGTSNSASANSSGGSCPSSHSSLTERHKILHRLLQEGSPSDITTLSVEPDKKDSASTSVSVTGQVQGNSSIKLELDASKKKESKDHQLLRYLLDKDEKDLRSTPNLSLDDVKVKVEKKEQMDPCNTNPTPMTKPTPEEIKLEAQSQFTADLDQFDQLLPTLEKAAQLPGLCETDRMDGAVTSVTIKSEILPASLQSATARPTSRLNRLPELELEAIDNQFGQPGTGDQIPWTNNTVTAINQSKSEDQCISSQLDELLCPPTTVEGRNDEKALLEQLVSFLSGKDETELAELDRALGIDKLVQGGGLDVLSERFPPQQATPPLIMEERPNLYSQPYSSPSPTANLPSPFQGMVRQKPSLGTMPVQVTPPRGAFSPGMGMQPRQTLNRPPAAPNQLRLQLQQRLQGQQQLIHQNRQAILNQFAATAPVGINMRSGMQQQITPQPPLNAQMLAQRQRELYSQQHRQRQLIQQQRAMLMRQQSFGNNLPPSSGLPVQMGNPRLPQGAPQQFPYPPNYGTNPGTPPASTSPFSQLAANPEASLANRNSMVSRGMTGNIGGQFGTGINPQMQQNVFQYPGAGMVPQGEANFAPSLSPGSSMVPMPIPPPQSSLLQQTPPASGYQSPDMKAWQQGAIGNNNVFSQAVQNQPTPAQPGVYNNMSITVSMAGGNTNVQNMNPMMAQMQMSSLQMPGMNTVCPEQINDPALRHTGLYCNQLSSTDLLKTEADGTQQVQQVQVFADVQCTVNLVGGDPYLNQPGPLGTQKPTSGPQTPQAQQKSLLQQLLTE
Sequence of Peroxisome proliferator-activated receptor gamma/Nuclear receptor coactivator 3 (P37231 whole entry): as the sequence (P37231 whole entry) above
Sequence of Peroxisome proliferator-activated receptor gamma/Nuclear receptor coactivator 3 (Q9Y6Q9 whole entry, further chain): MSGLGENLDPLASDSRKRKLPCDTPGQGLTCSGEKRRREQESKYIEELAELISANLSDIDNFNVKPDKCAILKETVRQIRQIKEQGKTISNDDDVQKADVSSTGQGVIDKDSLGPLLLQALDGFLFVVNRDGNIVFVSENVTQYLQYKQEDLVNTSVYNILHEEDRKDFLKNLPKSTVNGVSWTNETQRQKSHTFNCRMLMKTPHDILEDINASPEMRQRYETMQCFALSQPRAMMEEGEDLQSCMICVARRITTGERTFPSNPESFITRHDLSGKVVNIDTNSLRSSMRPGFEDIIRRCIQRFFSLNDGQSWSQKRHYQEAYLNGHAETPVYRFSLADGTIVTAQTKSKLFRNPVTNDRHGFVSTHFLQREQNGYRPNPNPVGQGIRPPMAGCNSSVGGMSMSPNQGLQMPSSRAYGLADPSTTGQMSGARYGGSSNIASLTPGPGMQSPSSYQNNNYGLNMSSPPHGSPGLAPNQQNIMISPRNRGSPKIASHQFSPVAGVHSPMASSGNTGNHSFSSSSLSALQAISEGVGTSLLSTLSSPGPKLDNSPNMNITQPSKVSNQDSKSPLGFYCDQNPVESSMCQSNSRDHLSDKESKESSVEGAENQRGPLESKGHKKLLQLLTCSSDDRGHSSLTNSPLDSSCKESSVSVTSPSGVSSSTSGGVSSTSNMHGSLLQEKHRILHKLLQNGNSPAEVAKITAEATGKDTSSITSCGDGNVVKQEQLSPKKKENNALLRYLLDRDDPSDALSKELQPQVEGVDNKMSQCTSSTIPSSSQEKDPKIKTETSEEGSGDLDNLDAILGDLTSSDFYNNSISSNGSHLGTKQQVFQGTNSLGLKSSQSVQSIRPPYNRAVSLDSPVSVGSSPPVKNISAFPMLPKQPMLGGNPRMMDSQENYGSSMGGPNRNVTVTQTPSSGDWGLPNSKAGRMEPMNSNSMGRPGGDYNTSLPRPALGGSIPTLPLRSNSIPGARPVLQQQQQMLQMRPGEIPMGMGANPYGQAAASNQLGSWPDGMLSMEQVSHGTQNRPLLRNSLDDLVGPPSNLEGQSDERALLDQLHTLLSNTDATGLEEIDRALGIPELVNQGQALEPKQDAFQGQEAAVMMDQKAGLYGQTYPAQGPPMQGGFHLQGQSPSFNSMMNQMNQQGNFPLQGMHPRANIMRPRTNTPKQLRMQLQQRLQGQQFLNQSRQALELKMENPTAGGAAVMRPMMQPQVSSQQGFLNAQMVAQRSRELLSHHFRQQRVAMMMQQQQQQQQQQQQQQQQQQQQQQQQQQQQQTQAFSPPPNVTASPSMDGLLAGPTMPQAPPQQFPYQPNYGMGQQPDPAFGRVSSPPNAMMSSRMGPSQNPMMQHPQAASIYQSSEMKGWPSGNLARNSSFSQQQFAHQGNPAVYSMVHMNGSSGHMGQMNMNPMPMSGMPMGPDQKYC

With `Cc1ccccc1Oc1ccc(Oc2ccccc2C)nn1` the EC50 [1] was > 50 µM (active).
In the case of `Cc1cccc2sc(NNC(=O)c3ccc(S(=O)(=O)N4CCc5ccccc5C4)cc3)nc12`, the EC50 [2] is reported as 2.4 µM (active), the EC50 (cells [3]) is reported as 12 µM (active) and the EC50 (Streptokinase A) is reported as > 150 µM (not active). The EC50 [4] was 0.733 µM (active), the EC50 (cells [5]) was > 350 µM (not active) and the EC50 [6] was 2.62 µM (active). For the same compound, the EC50 (Streptococcus) was 33.6 µM (active), the IC50 (Nonstructural protein 1) was > 100 µM (active) and the AC50 (INS1) was 1.8 µM (active). The IC50 [7] was 13.8 µM (active) and the IC50 [8] was 56.7 µM (active).
For `C(=N\Nc1nc2ccccc2[nH]1)/c1cccc2cccnc12`, the EC50 [9] was 5.09 µM (active), the EC50 (BJ [10]) was 1.53 µM (active) and the EC50 (cells [3]) was 66.2 µM (active). The EC50 [11] was > 120 µM (not active), the EC50 (BJ [12]) was 3.01 µM (active) and the EC50 (cells [5]) was 97.6 µM (active). The EC50 (BJ [13]) was 3.36 µM (active), the EC50 [14] was 2.33 µM (active) and the IC50 (Nonstructural protein 1) was 13.4 µM (active). For the same compound, the AC50 (HEK293) was 2.96 µM (active) and the AC50 [15] was 26 µM (active).
For `Cc1ccc2nc(-c3ccc(NC(=O)c4cccnc4)cc3)oc2c1`, the AC50 (INS1) was 4.63 µM (active) and the AC50 [16] was 29.2 µM (active).
For `CC(=O)Nc1nc(-c2cccc3ccccc23)cs1`, the EC50 [4] was < 0.1 µM (active), the EC50 [6] was > 60 µM (not active) and the EC50 (cells [17]) was 0.264 µM (active).
In the case of `CNC(=Nc1cc(Cl)ccc1Cl)SC1CC(=O)N(c2ccc(C(=O)OC)cc2)C1=O` (stereo not given), the EC50 [2] is reported as 10.3 µM (active), the CC50 [18] is reported as > 40 µM (active) and the EC50 (Streptococcus) is reported as 12.5 µM (active).
With `Clc1ccc(-c2c[n+](Cc3cccc(Cl)c3)c3n2CCC3)cc1` the EC50 [4] was < 0.1 µM (active), the EC50 [6] was > 60 µM (not active) and the AC50 [19] was 8.77 µM (active). The EC50 (cells [17]) was 0.009 µM (active).
With `O=C(Nc1ccc(N2CCOCC2)c(Cl)c1)c1ccccc1F` the EC50 [1] was > 50 µM (active).
For `C=CCn1c(NC(C)c2cc(Cl)ccc2O)nc2ccccc21` (stereo not given), the EC50 [1] was > 50 µM (active), the EC50 [20] was > 79.4 µM (inactive) and the EC50 [21] was 13.3 µM (not active). For the same compound, the EC50 [22] was > 79.4 µM (not active).
